Measurements: patent US4962277A, “Deletion analogues of magainin peptides” (priority 1988, dated 1990)
Like-named read-outs stand apart in the source and are kept apart here. No end group written: not given here.

Tests used:
[1] = system: human red blood cells; settings: pH 7
[2] = system: Staphylococcus epidermis; experiment: Antimicrobial assay: growth inhibition in 96-well plates, O.D.620 at six hours; format: cell-based; settings: for Effective Growth Inhibition Conc., S. epidermis: concentration at which the reported % inhibition (greater than 80%) was found, 100% at next higher concentration if below 100%; for % Inhibit, S. epidermis: 1.0×10^6 CFU/ml
Procedure: (§1) Antimicrobial assays were carried out in 96 -well tissue culture plates. Each well was incubated with a given microorganism suspended in LB medium (Escherichia coli, and Staphylococcus epidermis or YTB medium (Candida albicans). Upon the addition of the peptides or their deletion analogues, (dissolved in 1×PBS, pH 7.0) each well contained a final cell density of 1.0×10^6 colony forming units (CFU)/ml. The final peptide concentrations used were 100 μg/ml., 75.0 μg/ml, 50.0 μg/ml, 25 μg/ml, and 10 μg/ml Concentrations of up to 500 μg/ml, however, were employed against C. albicans.
(§2) Addition of peptides to the wells was defined as time zero. At six hours, the plates were placed in a Titertek Multiskan apparatus and the O.D.620 determined. The plates as well as the initial innoculum were incubated at 37° C.
(§3) Five wells per plate contained media alone. while five others contained medium plus cells. These controls were used to eliminate the possibility of media contamination while providing a measure of uninhibited growth of the microorganisms. The measurements of 1/(change in optical in density) for the wells containing either the peptides or their deletion analogues in the above-mentioned varying concentrations with the colony forming units of E. coli or S. epidermis are shown in FIGS. 1 and 2. FIG. 1 is a graph of the measurements of 1/(change in optical density) for wells containing Magainin I or Magainin II peptides or their deletion analogues and E. coli. FIG. 1a is a graph pertaining to Magainin I (indicated by X) and its deletion analogues. (The deletion analogue wherein amino acid 23 omitted was not tested). FIG. 1b is a graph pertaining to Magainin II (indicated by X) and its deletion analogues. In both graphs, Z is a control of medium plus cells.
FIG. 2 is a graph of the measurements of 1/(change in optical density) for wells containing Magainin I or Magainin II peptides or their deletion analogues and S. epidermis. FIG. 2a is a graph pertaining to Magainin I (indicated by X) and its deletion analogues. (The deletion analogue wherein amino acid 23 was deleted was not tested.) FIG. 2b is a graph pertaining to Magainin II (indicated by X) and its deletion analogues. In both graphs, Z is a control of medium plus cells. The measurements of 1/(change in optical density) as measured for the Magainin I and Magainin II peptides and their deletion analogues can be correlated to a measurement of their effectivness against E. coli and S. epidermis.
(§4) The degree of peptide activity was determined by comparing the deletion analogs with uninhibited growth of the control cells over a six-hour period. […] As listed in Table 1, M1C is Magainin I, C-terminal carboxyl carboxy-terminated), whereas M2A, is Magainin II, C-terminal amide (amide-terminated). The letter and number code after each M1C or M2A peptide indicates the amino acid residue deleted from the particular deletion analogue of Magainin I carboxY-terminated) or Magainin II (amide-terminated).

[3] = system: E. coli; experiment: Kinetics of microbial killing; format: cell-based; settings: peptide 25 μg/ml; E. coli 1.0×10^6 CFU/ml; 37° C.
Procedure: Dissolved peptide preparations of amide-terminated Magainin II, amide-terminated Magainin II with glycine (amino acid 18) deleted, and amide-terminated Magainin II with glutamic acid (amino acid 19) deleted were added to test tubes containing E. coli (1.0×10^6 CFU/ml) to a final peptide concentration of 25 μg/ml. At the time points of 15, 30, 45, and 60 minutes after the addition, indicated in FIG. 3, 10.0 µl were removed from each tube and sequentially diluted by a factor of ten four times in LB medium. The number of bacteria at each time point was determined by plating 10.0 μl of the 10^-2, 10^-3, and 10^-4 dilutions. The log of the number of bacteria from these dilutions at each time point was determined, and was plotted on the graph in FIG. 3. Two controls, one with medium alone and one with no peptides were both incubated along with the tubes containing cells and peptides. The tubes as well as the agar plates used were incubated at 37° C.

[4] = system: Escherichia coli; format: cell-based; settings: six hours; for Effective Growth Inhibition Conc., E. coli: concentration at which the reported % inhibition (greater than 80%) was found, 100% at next higher concentration if below 100%; for % Inhibit, E. coli: 1.0×10^6 CFU/ml
Procedure: as §1, §2, §3, §4

**Q.** How did the “% Hemolysis of Human Red Blood Cells” value [1] turn out when GIGKFLSAGKFGKAFVGEIMKS [M1C-H^7] was run?
**A.** 0%

**Q.** How did the “Effective Growth Inhibition Conc., S. epidermis” value [2] turn out when “GIGKFLHSAKKFGKAFVGEIMNS-NH2 [Peptide M2A, reference compound]” was run?
**A.** 25 µg/mL

**Q.** And the “% Inhibit, S. epidermis” value ([2]; peptide 25 μg/ml)?
**A.** 93%

**Q.** What about the “time until all E. coli cells were killed after addition of the peptide” value (from here on “time until all E. coli cells were killed”) [3] of the same substance?
**A.** much slower

**Q.** And the “Effective Growth Inhibition Conc., E. coli” value [4]?
**A.** 25 µg/mL

**Q.** And the “% Inhibit, E. coli” value ([4]; peptide 25 μg/ml)?
**A.** 100%

**Q.** What about the “% Hemolysis of Human Red Blood Cells” value [1] of the same substance?
**A.** 4%

**Q.** With GIGKFLHSAKKFGKAFVEIMNS-NH2 [M2A-G^18] as the substance, how does the “Effective Growth Inhibition Conc., S. epidermis” value [2] read?
**A.** 10 µg/mL

**Q.** And the “% Inhibit, S. epidermis” value ([2]; peptide 10 μg/ml)?
**A.** 89%

**Q.** And the “% Inhibit, S. epidermis” value ([2]; peptide 50 μg/ml)?
**A.** 80%

**Q.** What about the “% Inhibit, S. epidermis” value ([2]; peptide 100 μg/ml) of the same substance?
**A.** 0%

**Q.** What about the “time until all E. coli cells were killed” value [3] of the same substance?
**A.** ≤ 15 min

**Q.** And the “Effective Growth Inhibition Conc., E. coli” value [4]?
**A.** 10 µg/mL

**Q.** What about the “Effective Growth Inhibition Conc., E. coli” value ([4]; listed as M2A-G^3) of the same substance?
**A.** 100 µg/mL

**Q.** And the “Effective Growth Inhibition Conc., E. coli” value ([4]; listed as M2A-G^13)?
**A.** 25 µg/mL

**Q.** What about the “% Inhibit, E. coli” value ([4]; peptide 10 μg/ml) of the same substance?
**A.** 94%

**Q.** What about the “% Inhibit, E. coli” value ([4]; peptide 25 μg/ml) of the same substance?
**A.** 89%

**Q.** And the “% Inhibit, E. coli” value ([4]; peptide 100 μg/ml)?
**A.** 0%

**Q.** What about the “% Inhibit, E. coli” value ([4]; peptide 100 μg/ml, listed as M2A-G^3) of the same substance?
**A.** 93%

**Q.** How did the “Effective Growth Inhibition Conc., S. epidermis” value [2] turn out when GIGKFLHSAKKFGKAFVGEIMS-NH2 [M2A-N^22] was run?
**A.** 75 µg/mL

**Q.** And the “% Inhibit, S. epidermis” value ([2]; peptide 75 μg/ml)?
**A.** 100%

**Q.** What about the “Effective Growth Inhibition Conc., E. coli” value [4] of the same substance?
**A.** 25 µg/mL

**Q.** What about the “% Inhibit, E. coli” value ([4]; peptide 25 μg/ml) of the same substance?
**A.** 100%

**Q.** What about the “% Hemolysis of Human Red Blood Cells” value [1] of the same substance?
**A.** 2%

**Q.** GIGKFLHSAGKFGKAFVGIMKS [M1C-E^19] was tested. Which “% Hemolysis of Human Red Blood Cells” value [1] did it give?
**A.** 1%

**Q.** For “GIGKFLHSAGKFGKAFVGEIMKS [Peptide M1C, Magainin I, reference compound]”, which “% Hemolysis of Human Red Blood Cells” value [1] is on record?
**A.** 2%

**Q.** What does the source list for GIGKFLSAKKFGKAFVGEIMNS-NH2 [M2A-H^7]?
**A.** % Inhibit, S. epidermis ([2]; peptide 100 μg/ml): 0%; Effective Growth Inhibition Conc., E. coli [4]: 100 µg/mL; % Inhibit, E. coli ([4]; peptide 100 μg/ml): 90%; % Hemolysis of Human Red Blood Cells [1]: 0%

**Q.** Which “% Hemolysis of Human Red Blood Cells” value [1] does the source give for GIGKFLHSAGKFGKAFVGEIKS [M1C-M^21] here?
**A.** 1%

**Q.** Which “% Hemolysis of Human Red Blood Cells” value [1] does the source give for GIGKFHSAGKFGKAFVGEIMKS [M1C-L^6] here?
**A.** 0%

**Q.** How did the “% Hemolysis of Human Red Blood Cells” value [1] turn out when GIGKFLHSAGKFGKAFVGEMKS [M1C-I^20] was run?
**A.** 1%

**Q.** GIGKFLHSAGKFGKAFVGEIMK [M1C-S^23] was tested. Which “% Hemolysis of Human Red Blood Cells” value [1] did it give?
**A.** 0%

**Q.** How did the “% Inhibit, S. epidermis” value ([2]; peptide 100 μg/ml) turn out when GIGKFLHSAKKFGKAFVGEMNS-NH2 [M2A-I^20] was run?
**A.** 0%

**Q.** What about the “Effective Growth Inhibition Conc., E. coli” value [4] of the same substance?
**A.** 25 µg/mL

**Q.** What about the “% Inhibit, E. coli” value ([4]; peptide 25 μg/ml) of the same substance?
**A.** 84%

**Q.** What about the “% Inhibit, E. coli” value ([4]; peptide 100 μg/ml) of the same substance?
**A.** 0%

**Q.** What about the “% Hemolysis of Human Red Blood Cells” value [1] of the same substance?
**A.** 0%

**Q.** Which results are given for GIGKFLHSAKKFGKFVGEIMNS-NH2 [M2A-A^15]?
**A.** Effective Growth Inhibition Conc., S. epidermis [2]: 25 µg/mL; % Inhibit, S. epidermis ([2]; peptide 25 μg/ml): 90%; % Inhibit, S. epidermis ([2]; peptide 100 μg/ml): 0%; Effective Growth Inhibition Conc., E. coli [4]: 10 µg/mL; Effective Growth Inhibition Conc., E. coli ([4]; listed as M2A-A^9): 75 µg/mL; % Inhibit, E. coli ([4]; peptide 10 μg/ml): 95%; % Inhibit, E. coli ([4]; peptide 75 μg/ml): 82%

**Q.** Which results are given for GIGKFHSAKKFGKAFVGEIMNS-NH2 [M2A-L^6]?
**A.** % Inhibit, S. epidermis ([2]; peptide 100 μg/ml): 0%; % Inhibit, E. coli ([4]; peptide 100 μg/ml): 0%; % Hemolysis of Human Red Blood Cells [1]: 1%

**Q.** How did the “% Inhibit, S. epidermis” value ([2]; peptide 100 μg/ml) turn out when GIGKFLHSAKKFGKAFGEIMNS-NH2 [M2A-V^17] was run?
**A.** 0%

**Q.** What about the “Effective Growth Inhibition Conc., E. coli” value [4] of the same substance?
**A.** 50 µg/mL

**Q.** What about the “% Inhibit, E. coli” value ([4]; peptide 50 μg/ml) of the same substance?
**A.** 87%

**Q.** What about the “% Hemolysis of Human Red Blood Cells” value [1] of the same substance?
**A.** 0%

**Q.** What does the source list for GIGKFLHSAKKFGKAFVGEIMN-NH2 [M2A-S^23]?
**A.** % Inhibit, S. epidermis ([2]; peptide 100 μg/ml): 0%; Effective Growth Inhibition Conc., E. coli [4]: 25 µg/mL; Effective Growth Inhibition Conc., E. coli ([4]; listed as M2A-S^8): 75 µg/mL; % Inhibit, E. coli ([4]; peptide 25 μg/ml): 100%; % Inhibit, E. coli ([4]; peptide 75 μg/ml): 90%

**Q.** GIGKFLHSAKKFGKAFVGIMNS-NH2 [M2A-E^19] was tested. Which “Effective Growth Inhibition Conc., S. epidermis” value [2] did it give?
**A.** 10 µg/mL

**Q.** What about the “% Inhibit, S. epidermis” value ([2]; peptide 10 μg/ml) of the same substance?
**A.** 89%

**Q.** What about the “time until all E. coli cells were killed” value [3] of the same substance?
**A.** ≤ 15 min

**Q.** And the “Effective Growth Inhibition Conc., E. coli” value [4]?
**A.** 10 µg/mL

**Q.** And the “% Inhibit, E. coli” value ([4]; peptide 10 μg/ml)?
**A.** 92%

**Q.** And the “% Hemolysis of Human Red Blood Cells” value [1]?
**A.** 0%

**Q.** Which “Effective Growth Inhibition Conc., S. epidermis” value [2] does the source give for GIGKFLHSAKKFGKAFVGEINS-NH2 [M2A-M^21] here?
**A.** 75 µg/mL

**Q.** What about the “% Inhibit, S. epidermis” value ([2]; peptide 75 μg/ml) of the same substance?
**A.** 90%

**Q.** What about the “Effective Growth Inhibition Conc., E. coli” value [4] of the same substance?
**A.** 25 µg/mL

**Q.** And the “% Inhibit, E. coli” value ([4]; peptide 25 μg/ml)?
**A.** 95%

**Q.** And the “% Hemolysis of Human Red Blood Cells” value [1]?
**A.** 0%

**Q.** How did the “% Inhibit, S. epidermis” value ([2]; peptide 100 μg/ml) turn out when GIGKFLHSAKKFGKAVGEIMNS-NH2 [M2A-F^16] was run?
**A.** 0%

**Q.** What about the “Effective Growth Inhibition Conc., E. coli” value [4] of the same substance?
**A.** 100 µg/mL

**Q.** What about the “% Inhibit, E. coli” value ([4]; peptide 100 μg/ml) of the same substance?
**A.** 92%

**Q.** And the “% Inhibit, E. coli” value ([4]; peptide 100 μg/ml, listed as M2A-F^5)?
**A.** 0%

**Q.** What about the “% Inhibit, E. coli” value ([4]; peptide 100 μg/ml, listed as M2A-F^12) of the same substance?
**A.** 0%

**Q.** What about the “% Hemolysis of Human Red Blood Cells” value [1] of the same substance?
**A.** 1%

**Q.** Which “% Inhibit, E. coli” value ([4]; peptide 50 μg/ml) does the source give for “GIGKFLHSAKKFGKAFVGEIMNS [Peptide M2-Carboxy, Magainin II, reference compound]” here?
**A.** 100%

**Q.** GIGKFLHSAGKFGKAFGEIMKS [M1C-V^17] was tested. Which “% Hemolysis of Human Red Blood Cells” value [1] did it give?
**A.** 1%
